Assay results from paper PMC6406907, “A H2AX–CARP-1 Interaction Regulates Apoptosis Signaling Following DNA Damage” (Cancers, 2019).

Legend:
Format in all cases: cell-based, human
[1] = test system: CARP-1, phospho-JNK1/2, phospho-H2AX; experiment: Western blot of CARP-1, phospho-JNK1/2, γH2AX in HeLa; conditions: 10 μM, WB
Procedure: (§1) Logarithmically growing cells were either untreated or treated with different agents for various time periods. The cells were lysed to prepare protein extracts. IP was carried out by incubating approximately 1 mg of the protein lysate with appropriate antibodies. The immunoprecipitates were then analyzed by SDS-PAGE, followed by WB with respective, interacting protein. For Gst-pulldown, Gst-H2AX or various His-TAT-HA-tagged CARP-1 peptides were generated in Escherichia coli (E. coli) BL21 cells essentially as described by us previously. Briefly, the competent E. coli BL-21 (DE3) pLysS cells were transformed separately with various recombinant pGEX-4T-1 or pTAT-HA constructs. The transformed cells were then subjected to selection by combined presence of ampicillin and chloramphenicol; various isolates for each transformation were obtained and bacterial lysates were characterized for expression of fusion peptides. Cells from each isolate were grown in 4 mL of LB medium containing ampicillin only until the optical density (OD)600 reached 0.4–0.8. […]
(§2) Here, we utilized human TNBC MDA-MB-468 and human cervical cancer HeLa cells to conduct an MTT-based dose-response analysis using Adriamycin and CFM compounds. […] The cell lysates from the control, untreated, and treated cells were analyzed by WB for expression of CARP-1, phospho-JNK1/2, phospho-H2AX, and poly ADP ribose polymerase (PARP) proteins. […]

[2] = test system: CARP-1, phospho-JNK1/2, phospho-H2AX; experiment: Western blot of CARP-1, phospho-JNK1/2, γH2AX in UOK 262; conditions: 10 μM, UOK 262, WB
Procedure: as §1, §2

[3] = test system: CARP-1 interaction with γH2AX; experiment: Co-immunoprecipitation of myc-His-CARP-1 with γH2AX; conditions: for interaction of wild-type CARP-1 with γH2AX: MDA-MB-468 cells expressing myc-His-tagged CARP-1 (WT), IP/WB; for interaction of CARP-1 (Δ600–650) with γH2AX: in-frame deletion of CARP-1 amino acids 600–650, IP/WB
Procedure: Logarithmically growing cells were either untreated or treated with different agents for various time periods. The cells were lysed to prepare protein extracts. IP was carried out by incubating approximately 1 mg of the protein lysate with appropriate antibodies. The immunoprecipitates were then analyzed by SDS-PAGE, followed by WB with respective, interacting protein. For Gst-pulldown, Gst-H2AX or various His-TAT-HA-tagged CARP-1 peptides were generated in Escherichia coli (E. coli) BL21 cells essentially as described by us previously. Briefly, the competent E. coli BL-21 (DE3) pLysS cells were transformed separately with various recombinant pGEX-4T-1 or pTAT-HA constructs. The transformed cells were then subjected to selection by combined presence of ampicillin and chloramphenicol; various isolates for each transformation were obtained and bacterial lysates were characterized for expression of fusion peptides. Cells from each isolate were grown in 4 mL of LB medium containing ampicillin only until the optical density (OD)600 reached 0.4–0.8. Expression of fusion peptides was induced over 2–4 h incubation periods after Isopropyl β-D-1-thiogalactopyranoside (IPTG) addition. The cells were harvested, and pellets were stored at −80 °C overnight. The cell pellets were then lysed in 100–400 μL of bacterial protein extraction reagent (BPER) buffer (Thermo Scientific, Waltham, MA, USA, Cat# 78243) containing 2 μL/mL of 10 units/μL DNAse I (Boehringer Mannheim, Fremont, CA, USA, Cat # 776–785), and supernatant checked for expression of respective fusion peptides by WB. Following confirmation of expression, 5–20 μL of lysate expressing Gst fusion protein was first incubated with 20 μL of precleared glutathione sepharose in a final volume of 100 μL at 4 °C for 2 h with constant rotation. The sepharose beads were spun at 800× g for 2 min, and the pellet was washed 2–4 times with 100–200 μL of RIPA buffer (20 mM Tris-HCl (pH 7.5), 150 mM NaCl, 1 mM Na2EDTA, 1 mM EGTA, 1% NP-40, 1% sodium deoxycholate, 2.5 mM sodium pyrophosphate, 1 mM β-glycerophosphate, 1 mM Na3VO4, 1 µg/mL leupeptin) with 0.5 M NaCl. The beads were spun again as above, and mixed with 5–20 μL of E. coli lysate expressing His-TAT-HA CARP-1 peptides. The reactions were incubated further at 4 °C for 2 h with constant rotation. The peptide-bound sepharose beads were pelleted and washed with 100–200 μL of RIPA buffer with 0.1 M NaCl for 2–4 washes. In some cases, additional washes with 0.05 M NaCl buffer were carried out. After the final wash, the sepharose–protein complexes were spun, and then re-suspended in SDS loading buffer for electrophoresis on 12–15% SDS PAGE, followed by WB with appropriate antibodies.
We next carried out mutagenesis-based studies to map the interacting epitopes of CARP-1 and H2AX proteins. […]

SMILES | expression of CARP-1, phospho-JNK1/2, phospho-H2AX [1] | expression of CARP-1, phospho-JNK1/2, phospho-H2AX [2] | interaction of wild-type CARP-1 with γH2AX [3] | interaction of CARP-1 (Δ600–650) with γH2AX [3]
O=C1N(Cc2ccccc2Cl)c2ccccc2C12NN=C(c1cccc(Cl)c1)S2 (centres unmarked) [CFM-4.16] | stimulated expression of CARP-1, phospho-JNK1/2, and phospho-H2AX in a time-dependent manner | stimulated expression of CARP-1, phospho-JNK1/2, and phospho-H2AX in a time-dependent manner | robust interaction of wild-type CARP-1 with γH2AX | abrogated CARP-1 interaction with γH2AX
COc1cccc2c1C(=O)c1c(O)c3c(c(O)c1C2=O)C[C@@](O)(C(=O)CO)C[C@@H]3O[C@H]1C[C@H](N)[C@H](O)[C@H](C)O1 [Adriamycin, doxorubicin, reference compound] | stimulated expression of CARP-1, phospho-JNK1/2, and phospho-H2AX in a time-dependent manner | stimulated expression of CARP-1, phospho-JNK1/2, and phospho-H2AX in a time-dependent manner | robust interaction of wild-type CARP-1 with γH2AX | abrogated CARP-1 interaction with γH2AX
